Test [1] has as its system basal membrane formation (collagen IV) in the lesion site. The experiment in a line: Lesion-induced basal membrane (collagen IV) deposition after postcommissural fornix transection, immunohistochemistry. In kind it is in vivo, Wistar rats. Here is the method: In an effort to modulate postlesion BM deposition, either polyclonal antibodies against collagen IV (anti-Coll IV; n=14) or the iron chelator a, a′-dipyridyl (DPY; n=9) were injected locally into the lesion center immediately after transection. […] (13) and enhanced procollagen degradation (14). Control animals received a PBS injection (n=9) or were sham operated (n=3). Basal membrane formation was studied in response to antibody and drug treatment using immunohistochemical methods. […] At 2 weeks after lesion+injection only a very small number of Coll-immunreactive structures perpendicular to the tract course had developed (FIG. 1e, f).
Surgery. The left postcommissural fornix of 42 Wistar rats (180–210 g) was transected stereotactically at a distance of about 1 mm proximal to the target, the mammillary body, using a Scouten wire knife as described previously (9). The completeness of transection was confirmed by serial reconstruction of the lesion site for each of the animals. Immediately after transection animals received a topical application (1.6 μl) of either polyclonal antibodies against collagen, IV (anti-Coll IV, Biogenex, 50–100 μg/ml, n=14) or the iron chelator a, a′-dipyridyl (DPY, 1–10 mM, n=9). Substances were pressure injected (injection time 10 min) directly into the lesion site via a micropipette coupled to a microsyringe. Controls received equal amounts of phosphate-buffered saline (n=9) or sham operation (n=3).
Immunohistochemical staining. After a survival time of 4 days (d), 6 d, 2 weeks (w), 4 w and 6 w after surgery brains were removed, frozen in isopentan (−50/−60° C.) and cut into serial sagittal 10 μm thick sections. […]

The test system of test [2] is transected postcommissural fornix axons. The experiment in a line: Regeneration of transected postcommissural fornix axons across the lesion site (NF immunohistochemistry, anterograde tracing, electron microscopy). In kind it is in vivo, Wistar rats.
Test [3] relates to Na+-dependent action potentials of fornix fibers. Also on record: species or system rats.

Entries after “also recorded” stand apart in the source; their conditions may differ.

Take `c1ccc(-c2ccccn2)nc1` [DPY, a, a′-dipyridyl]: the “lesion-induced BM deposition” value in test [1] (local injection) is listed as “significantly reduced”. Besides, in test [1] (single local injection immediately after transection, anti-Coll IV 80–160 ng or DPY 1.6–16 μmol, all examined survival time points), the “Coll-immunopositive laminae and blood vessels in the lesion center and the fornix stumps” value was “massive and specific reduction”. The “Collagen IV deposition in the lesion site” value in test [1] (two weeks postsurgery, FIG. 1e, f) is “markedly reduced”. The “regeneration of transected fornix fibers across the lesion site (NF-immunohistochemistry)” value in test [2] (6 weeks postsurgery, FIG. 2) is “fibers traverse the former lesion site”. The “elongation of fornix axons into and across the lesion center” value in test [2] (between 2 and 4 weeks after lesion+injection, immunocytochemical staining) is “large numbers of axons entered and traversed the lesion center”.

On to `NC1=N[C@H](O)[C@H]2[C@H]3O[C@]4(O)O[C@@H]([C@@H](O)[C@@]2(N1)[C@@H]4O)[C@]3(O)CO` [Tetrodotoxin], for which the stimulus-evoked extracellular response result in test [3] is given as “blocks the stimulus-evoked response; also recorded: blocked”.

(Values after patent US7208153B2, “Method for the improvement of neuronal regeneration” (Neuraxo Biopharmaceuticals GmbH, priority 1997, dated 2007).)
